Assays:
Assay type in all cases: cell-based, human
HUVECs = assay: Angiogenesis (tube formation) assay (miR-150)
Description: Matrigel (BD Biosciences, California, USA) was placed into flat-bottom, 96-well plate and polymerized for 1 hour at 37° C. HUVECs incubated in M199 containing 1% FBS were harvested after trypsin treatment, resuspended in M199, plated onto the layer of Matrigel at a density of 1×10^4 cells/well, and the supernatant of SKpac-17 cells transfected by pre miR150 was added. After 24 hours, 48 hours, and 72 hours, tube formation was observed.
Cell migration and angiogenesis are important factors that influence tumor progression and metastasis. In this Example, a wound healing assay and a tube formation assay were performed to examine the effect of pre miR-150 on cell migration and the effect on angiogenesis, respectively.

SKpac cells = assay: WST (CCK-8) cell viability assay (miR-136); settings: PTX-alone treatment
Description: In order to investigate the role of miR-136 in the anticancer agent-sensitivity and proliferation activity of PTX-resistant SKpac cells, cell survival rate, cell proliferation, and apoptosis analyses were performed on the SKpac cells transfected by miR-136 mimics. […] In addition, to confirm whether overexpression of miR-136 increases cell toxicity induced by PTX, degrees of apoptosis were evaluated using a TUNEL analysis. […] In collection of these experiment results, it may be known that the overexpression of miR-136, when used alone or in a combination with PTX, decreases cell viability and cell proliferation of anticancer agent-resistant ovarian cancer cells and increases apoptosis.

SKpac-17 cells = assay: Spheroid-forming assay (miR-150); settings: PTX alone-treatment
Description: Spheroid-forming assays were performed to verify the effect of miR-150 on cancer stem cell activation. SKpac-17 cells were transfected with pre miR-150 or pre miR-negative. Cells were plated in Ultra-Low-Attachment Surface 6-well culture plates (Corning, Action, MA, USA) in serum-free DEME/F12 medium (Gibco/Life Technologies, Grand Island, N.Y., USA) supplemented with 20 ng/ml epidermal growth factor (Gibco, Carlsbad, Calif., USA), 10 ng/ml basic fibroblast growth factor (Sigma-Aldrich, St. Louis, Mo., USA), 0.4% bovine serum albumin (Sigma-Aldrich, St. Louis, Mo., USA), and 5 μg/mL insulin (Sigma-Aldrich, St. Louis, Mo., USA) at a density of 1000 cells/cm^2. Spheroid formation (of 50 to 100 cells per spheroid) was assessed 7 days after seeding.
In order to verify the effect of miR-150 transfection on cancer stem cells (CSCs) activation, a spheroid-forming assay was performed on paclitaxel-resistant SKpac cells in this Example, and alteration of mRNA of the stemness genes was detected using real-time RT-PCR.

[1] = system: SKpac cells (SKpac-12, SKpac-16, and SKpac-17); assay: TUNEL assay for apoptosis (miR-150); settings: 48 hours
Description: TUNEL assays were performed after pre miR-150 transfection in SKpac-12 and SKpac-17. After 48 hours, apoptotic cells were analyzed using the In Situ Cell Death Detection kit (Roche, Mannheim, Germany). 2×10^7 cells were fixed with 75% ethanol for 2 hours at −20° C. The cells were washed twice with PBS and incubated with 0.1% Triton X-100 and 0.1% sodium citrate for 2 minutes on ice. After washing twice with PBS, the cells were incubated with a TUNEL-labelling mixture for 1 hour at 37° C. in the dark. The samples were washed twice with PBS and analyzed by fluorescence activated cell sorting (FACS) (Becton Dickinson, Franklin Lakes, N.J., USA).
In addition, to determine the effect of miR-150 on apoptosis, the SKpac cells (SKpac-12, SKpac-16, and SKpac-17) were transfected with pre miR-150, and then a TUNEL assay was performed on the cells. […] Collectively, the pre miR-150 transfection by itself or increased a sensitivity of tumor cells with respect to PTX and thus decreased tumor cell proliferation and induced apoptosis in PTX-resistant ovarian cancer cells.

## CC(=O)O[C@H]1C(=O)[C@@]2(C)[C@H]([C@H](OC(=O)c3ccccc3)[C@]3(O)C[C@H](OC(=O)[C@H](O)[C@@H](NC(=O)c4ccccc4)c4ccccc4)C(C)=C1C3(C)C)[C@]1(OC(C)=O)CO[C@@H]1C[C@@H]2O [PTX, paclitaxel]
HUVECs
  reduction effect (migration / tube formation): not observed
SKpac cells
  influence on the cell viability: no influence
SKpac-17 cells
  spheroid formation: no changes
[1]
  apoptosis of the comparison treatments: 3.5%

From patent US11639531B2, “Composition, kit, and method for diagnosis and treatment of taxane anticancer agent-resistant cancer” (SUNGKWANG MEDICAL FOUNDATION, priority 2018, dated 2023)
